Target: T1, soluble epoxide hydrolase (sEH, EPHX2) (Homo sapiens, UniProt P34913)
T1 sequence (P34913 1-555): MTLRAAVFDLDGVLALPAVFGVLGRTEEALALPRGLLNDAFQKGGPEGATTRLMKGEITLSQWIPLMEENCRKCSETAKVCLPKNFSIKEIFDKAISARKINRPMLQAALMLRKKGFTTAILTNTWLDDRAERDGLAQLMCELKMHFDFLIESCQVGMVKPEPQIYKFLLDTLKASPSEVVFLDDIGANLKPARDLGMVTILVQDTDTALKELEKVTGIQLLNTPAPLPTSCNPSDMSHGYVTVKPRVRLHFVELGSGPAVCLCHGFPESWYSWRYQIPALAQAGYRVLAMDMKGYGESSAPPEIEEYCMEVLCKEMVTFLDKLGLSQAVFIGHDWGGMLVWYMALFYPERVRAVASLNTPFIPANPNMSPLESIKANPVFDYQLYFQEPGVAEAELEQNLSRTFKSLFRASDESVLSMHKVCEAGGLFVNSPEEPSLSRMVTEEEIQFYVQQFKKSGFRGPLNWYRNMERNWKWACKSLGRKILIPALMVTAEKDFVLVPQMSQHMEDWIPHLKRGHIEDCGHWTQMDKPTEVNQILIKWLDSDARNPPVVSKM
Assay: fluorescent kinetic enzyme assay (off-DNA hit resynthesised after DECL selection)
Type: biochemical

Ki: 9 ± 2 nM
SMILES: Cc1cccc(CCNC(=O)c2ccc(F)c(CN(C)Cc3cc(C(=O)NCCc4cccc(C)c4)ccc3F)c2)c1 [compound 5, 5]

From PMC6706801, “Palladium-Catalyzed Hydroxycarbonylation of (Hetero)aryl Halides for DNA-Encoded Chemical Library Synthesis” (Bioconjugate Chemistry, 2019)
